Measurements: ChEMBL document CHEMBL1201862, “PubChem BioAssay data set” (2004)
The source made the active and inactive calls.

Tests used:
[1] = target: Voltage-dependent T-type calcium channel subunit alpha-1H (Homo sapiens, UniProt O95180); format: functional;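 further: channel activity triggered by adding a high calcium stimulation buffer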
[2] = target: Glyceraldehyde-3-phosphate dehydrogenase (Homo sapiens, UniProt P04406)
[3] = A cytotoxicity screen of small molecule inhibitors of the PhoP region in Salmonella typhi identified in the primary screen. [Related pubchem assays: 1850, 1864, 1985 ]; format: functional
[4] = target: T1, RNA-binding protein pos-1 (Caenorhabditis elegans, UniProt G5EF15); assay: disruptors of C. elegans POS-1 RNA interaction – biochemical, fluorescence polarization, dose response (AID 1964);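 further: purified POS-1 fused to maltose binding protein made in E. coli; potency of compounds blocking POS-1 binding to fluorescent RNA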
T1 sequence (G5EF15 whole entry): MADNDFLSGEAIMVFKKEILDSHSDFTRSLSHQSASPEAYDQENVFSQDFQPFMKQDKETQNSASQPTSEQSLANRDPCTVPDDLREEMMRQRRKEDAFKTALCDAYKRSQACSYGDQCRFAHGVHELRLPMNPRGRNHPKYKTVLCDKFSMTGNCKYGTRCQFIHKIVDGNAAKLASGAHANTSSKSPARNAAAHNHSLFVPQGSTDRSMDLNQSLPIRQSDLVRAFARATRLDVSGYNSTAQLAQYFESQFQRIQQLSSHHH

[5] = target: T2, Zinc finger protein mex-5 (Caenorhabditis elegans, UniProt Q9XUB2); assay: potency of MEX-5 RNA-binding blockers – biochemical, C. elegans, fluorescence polarization, dose response (AID 1960)
T2 sequence (Q9XUB2 whole entry): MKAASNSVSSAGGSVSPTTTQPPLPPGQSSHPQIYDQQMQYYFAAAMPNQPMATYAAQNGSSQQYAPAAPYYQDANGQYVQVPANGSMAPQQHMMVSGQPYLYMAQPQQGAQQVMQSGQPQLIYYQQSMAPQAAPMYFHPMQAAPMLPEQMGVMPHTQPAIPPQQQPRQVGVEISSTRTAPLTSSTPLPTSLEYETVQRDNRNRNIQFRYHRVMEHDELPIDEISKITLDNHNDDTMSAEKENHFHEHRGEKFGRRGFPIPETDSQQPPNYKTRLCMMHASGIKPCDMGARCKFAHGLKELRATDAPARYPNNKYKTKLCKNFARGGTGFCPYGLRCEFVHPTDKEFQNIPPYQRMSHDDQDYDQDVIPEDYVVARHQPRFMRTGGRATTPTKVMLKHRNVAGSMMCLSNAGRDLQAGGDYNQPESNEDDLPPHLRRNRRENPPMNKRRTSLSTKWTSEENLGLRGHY

[6] = target: T3, Heat shock factor protein 1 (Mus musculus, UniProt P38532); assay: decrease of HSF1-responsive luciferase luminescence – cell-based, NIH3T3, dose retest, confirmation (AID 2382); format: functional;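 further: NIH3T3 fibroblasts with HSF1-driven luciferase reporter stressed by proteasome inhibitor MG132; luminescence from HSF1-driven luciferase expression after 8 hours of MG132 stress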
T3 sequence (P38532 whole entry): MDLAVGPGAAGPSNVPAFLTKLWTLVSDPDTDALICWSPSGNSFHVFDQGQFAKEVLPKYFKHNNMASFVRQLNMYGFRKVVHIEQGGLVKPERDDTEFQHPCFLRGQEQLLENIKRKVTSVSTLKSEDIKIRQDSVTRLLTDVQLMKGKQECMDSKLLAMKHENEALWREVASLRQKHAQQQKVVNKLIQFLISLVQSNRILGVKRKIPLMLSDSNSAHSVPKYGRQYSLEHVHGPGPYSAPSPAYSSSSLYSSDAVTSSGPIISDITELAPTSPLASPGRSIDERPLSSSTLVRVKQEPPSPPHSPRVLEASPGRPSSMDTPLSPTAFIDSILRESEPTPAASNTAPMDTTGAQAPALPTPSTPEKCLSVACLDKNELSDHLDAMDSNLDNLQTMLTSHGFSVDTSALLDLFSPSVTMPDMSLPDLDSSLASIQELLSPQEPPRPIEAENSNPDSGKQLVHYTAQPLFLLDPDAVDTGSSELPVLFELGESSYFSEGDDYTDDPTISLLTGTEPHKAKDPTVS

[7] = target: Induced myeloid leukemia cell differentiation protein Mcl-1 (Homo sapiens, UniProt Q07820); format: functional
[8] = target: T4, Short transient receptor potential channel 4 (Mus musculus, UniProt Q9QUQ5); assay: calcium entry via TRPC4 opening agents – cell-based, HEK293 TRPC4/mu-opioid, Fluo-4 calcium, dose response (AID 434937); format: functional
T4 sequence (Q9QUQ5 whole entry): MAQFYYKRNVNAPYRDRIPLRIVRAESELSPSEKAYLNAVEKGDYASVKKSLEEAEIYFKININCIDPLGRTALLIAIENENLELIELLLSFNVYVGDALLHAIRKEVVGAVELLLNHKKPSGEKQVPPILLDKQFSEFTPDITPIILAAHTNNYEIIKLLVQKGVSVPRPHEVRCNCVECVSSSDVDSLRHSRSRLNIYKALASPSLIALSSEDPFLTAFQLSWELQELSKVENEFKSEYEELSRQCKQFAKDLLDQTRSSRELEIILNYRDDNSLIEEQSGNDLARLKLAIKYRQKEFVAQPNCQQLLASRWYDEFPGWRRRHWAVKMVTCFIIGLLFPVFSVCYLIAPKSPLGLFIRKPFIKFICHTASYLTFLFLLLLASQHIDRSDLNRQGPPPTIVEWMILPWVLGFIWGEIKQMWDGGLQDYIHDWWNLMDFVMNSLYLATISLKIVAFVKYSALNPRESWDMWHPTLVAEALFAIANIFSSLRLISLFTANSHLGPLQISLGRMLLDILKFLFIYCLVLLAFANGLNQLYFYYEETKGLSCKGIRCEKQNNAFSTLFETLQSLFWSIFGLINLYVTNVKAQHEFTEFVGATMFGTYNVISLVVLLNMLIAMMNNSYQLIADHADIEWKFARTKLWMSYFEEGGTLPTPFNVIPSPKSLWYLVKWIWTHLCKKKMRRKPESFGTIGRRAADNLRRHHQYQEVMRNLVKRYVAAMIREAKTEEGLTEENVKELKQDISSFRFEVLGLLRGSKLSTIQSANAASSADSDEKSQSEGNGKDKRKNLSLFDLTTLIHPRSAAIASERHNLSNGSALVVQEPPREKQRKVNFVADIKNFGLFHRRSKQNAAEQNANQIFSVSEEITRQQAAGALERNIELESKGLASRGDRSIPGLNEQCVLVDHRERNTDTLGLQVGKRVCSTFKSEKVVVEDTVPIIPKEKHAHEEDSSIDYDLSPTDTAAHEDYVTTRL

[9] = target: T5, Ubiquitin-conjugating enzyme E2 N (Homo sapiens, UniProt P61088); format: functional;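 further: Dose-response confirmation in a TR-FRET assay detecting UBC13-driven polyubiquitin chain formation, inhibition measured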
T5 sequence (P61088 whole entry): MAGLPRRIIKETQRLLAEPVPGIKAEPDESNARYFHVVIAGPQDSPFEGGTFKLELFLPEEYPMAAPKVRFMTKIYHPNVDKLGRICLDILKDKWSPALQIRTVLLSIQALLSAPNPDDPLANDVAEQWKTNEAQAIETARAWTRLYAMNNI

Nonstructural protein 1 = Nonstructural protein 1 (Influenza A virus, UniProt Q194T2); format: functional, Influenza A virus (A/California/07/2009(H1N1))
[10] = target: Luciferin 4-monooxygenase (Photinus pyralis, UniProt P08659); assay: inhibition of purified Photinus pyralis luciferase – biochemical, luminescence, dose response (AID 1891)
[11] = Luminescence Cell-Based Dose Confirmation HTS to Identify Inhibitors of Platelet Dense Granule Release. [Related pubchem assays: 1663 (Primary HTS), 1678 (Summary of Project)]; format: functional
cells = format: functional
[12] = microbe, parasite or virus in culture; format: functional; conditions: Mycobacterium tuberculosis
[13] = Trypanosoma cruzi growth suppression in host cells – NIH3T3 host cells, beta-gal luminescence, confirmation (AID 2044); format: functional, cell-based;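 further: intracellular parasites grown in NIH/3T3 mouse fibroblasts as host cells; luminescent beta-galactosidase reporter signal from transgenic T. cruzi replicating inside host cells; inhibitors lower the luminescence signal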
[14] = NIH3T3 cell viability loss – ATP luminescence, mouse fibroblasts, counter-screen, dose response (AID 2010); format: functional, cell-based;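 further: cells exposed to compound for about 90 hours before reading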
[15] = target: T3, Heat shock factor protein 1; assay: enhancement of HSF1-driven luciferase signal – cell-based, NIH3T3, luminescence, dose retest, confirmation (AID 435004); format: functional;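 further: stress induced by proteasome inhibitor MG132 added 30 min after compound; luciferase reporter driven by HSF1 response element in NIH3T3 cells; actives raise luminescence as potentiators of the MG132 stress response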
[16] = Luminescence Cell-Based Dose Response HTS to Identify Activators of Luciferase Translation or Activity in H4 […] Cells. [Related pubchem assays: 1829 (Project Summary), 1814 (Primary HTS)]; format: functional
H4 = assay: Luminescence Cell-Based Dose Response HTS to Identify Activators of 5'UTR Stem-Loop Driven Prion Protein mRNA Translation in H4 Neuroglioblastoma Cells. [Related pubchem assays: 1829 (Project Summary), 1814 (Primary HTS)]; format: functional; conditions: Homo sapiens

Chain of Voltage-dependent T-type calcium channel subunit alpha-1H (O95180 whole entry): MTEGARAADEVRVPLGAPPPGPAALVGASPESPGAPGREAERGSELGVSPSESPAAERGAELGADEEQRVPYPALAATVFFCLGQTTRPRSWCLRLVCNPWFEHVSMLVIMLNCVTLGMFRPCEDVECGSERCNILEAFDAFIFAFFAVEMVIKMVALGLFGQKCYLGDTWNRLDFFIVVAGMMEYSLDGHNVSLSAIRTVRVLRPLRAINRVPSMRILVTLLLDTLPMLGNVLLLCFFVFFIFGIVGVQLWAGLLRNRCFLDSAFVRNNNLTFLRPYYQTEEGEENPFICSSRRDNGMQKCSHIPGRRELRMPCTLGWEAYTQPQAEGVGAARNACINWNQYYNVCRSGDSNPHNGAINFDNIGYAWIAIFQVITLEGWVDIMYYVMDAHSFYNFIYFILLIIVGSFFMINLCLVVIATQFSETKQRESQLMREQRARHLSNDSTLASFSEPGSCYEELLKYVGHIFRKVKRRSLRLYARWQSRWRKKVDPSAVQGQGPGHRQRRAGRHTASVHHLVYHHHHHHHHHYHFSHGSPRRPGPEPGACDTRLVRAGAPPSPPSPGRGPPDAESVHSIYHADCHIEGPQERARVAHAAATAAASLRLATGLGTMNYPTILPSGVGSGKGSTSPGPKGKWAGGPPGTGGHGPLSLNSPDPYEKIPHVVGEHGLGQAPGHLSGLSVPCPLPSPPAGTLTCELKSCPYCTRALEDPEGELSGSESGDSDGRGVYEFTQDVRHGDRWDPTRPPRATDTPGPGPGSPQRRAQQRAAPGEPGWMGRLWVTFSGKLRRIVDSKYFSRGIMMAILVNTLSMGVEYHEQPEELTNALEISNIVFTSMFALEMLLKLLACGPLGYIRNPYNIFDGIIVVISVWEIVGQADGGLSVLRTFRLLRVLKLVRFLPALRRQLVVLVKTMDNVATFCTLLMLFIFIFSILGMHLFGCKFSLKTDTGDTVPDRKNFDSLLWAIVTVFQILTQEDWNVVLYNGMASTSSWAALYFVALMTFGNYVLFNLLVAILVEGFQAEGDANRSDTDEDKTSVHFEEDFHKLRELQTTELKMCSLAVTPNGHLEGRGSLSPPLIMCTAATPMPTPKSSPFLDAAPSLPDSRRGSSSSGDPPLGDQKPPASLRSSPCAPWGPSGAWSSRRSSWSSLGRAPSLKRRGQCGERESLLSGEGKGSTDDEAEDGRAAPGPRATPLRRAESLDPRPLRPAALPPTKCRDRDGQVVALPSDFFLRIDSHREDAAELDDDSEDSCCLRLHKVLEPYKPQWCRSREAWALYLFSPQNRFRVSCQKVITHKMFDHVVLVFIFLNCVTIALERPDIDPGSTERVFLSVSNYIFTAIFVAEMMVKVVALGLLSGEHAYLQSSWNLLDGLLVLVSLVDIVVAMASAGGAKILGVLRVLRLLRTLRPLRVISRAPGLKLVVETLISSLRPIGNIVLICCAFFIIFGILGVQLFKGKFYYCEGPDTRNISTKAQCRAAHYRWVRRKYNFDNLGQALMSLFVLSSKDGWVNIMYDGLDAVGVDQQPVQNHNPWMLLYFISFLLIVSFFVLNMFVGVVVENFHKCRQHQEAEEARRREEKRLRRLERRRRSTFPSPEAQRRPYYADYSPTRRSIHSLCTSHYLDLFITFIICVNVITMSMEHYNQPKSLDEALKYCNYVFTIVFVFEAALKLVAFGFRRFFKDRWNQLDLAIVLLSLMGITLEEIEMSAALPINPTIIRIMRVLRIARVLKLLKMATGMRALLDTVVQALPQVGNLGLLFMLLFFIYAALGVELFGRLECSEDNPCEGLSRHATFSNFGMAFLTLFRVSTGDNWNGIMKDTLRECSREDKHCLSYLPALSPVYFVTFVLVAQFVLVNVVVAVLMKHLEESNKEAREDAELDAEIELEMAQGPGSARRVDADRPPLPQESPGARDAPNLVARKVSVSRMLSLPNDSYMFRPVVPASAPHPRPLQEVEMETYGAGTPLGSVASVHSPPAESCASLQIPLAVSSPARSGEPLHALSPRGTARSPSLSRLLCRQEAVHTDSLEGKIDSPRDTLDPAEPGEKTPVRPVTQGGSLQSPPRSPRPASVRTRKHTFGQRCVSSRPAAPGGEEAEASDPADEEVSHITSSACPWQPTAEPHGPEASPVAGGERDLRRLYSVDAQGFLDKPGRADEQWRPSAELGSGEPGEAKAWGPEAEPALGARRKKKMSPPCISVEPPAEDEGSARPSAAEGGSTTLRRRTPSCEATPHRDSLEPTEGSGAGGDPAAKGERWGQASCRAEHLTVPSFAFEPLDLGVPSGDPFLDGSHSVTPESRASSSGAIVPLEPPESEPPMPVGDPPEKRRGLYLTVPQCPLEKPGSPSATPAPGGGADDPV
Chain of Glyceraldehyde-3-phosphate dehydrogenase (P04406 whole entry): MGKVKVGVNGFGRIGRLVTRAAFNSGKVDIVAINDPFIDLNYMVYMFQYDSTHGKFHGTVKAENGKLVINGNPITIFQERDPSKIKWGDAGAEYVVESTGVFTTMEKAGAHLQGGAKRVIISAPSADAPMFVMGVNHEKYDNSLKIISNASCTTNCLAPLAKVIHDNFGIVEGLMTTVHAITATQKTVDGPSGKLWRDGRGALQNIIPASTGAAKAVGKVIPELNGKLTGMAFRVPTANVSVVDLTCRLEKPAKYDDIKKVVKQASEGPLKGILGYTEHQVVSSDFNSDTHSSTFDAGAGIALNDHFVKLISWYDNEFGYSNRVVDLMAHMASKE
Chain of Nonstructural protein 1 (Q194T2 whole entry): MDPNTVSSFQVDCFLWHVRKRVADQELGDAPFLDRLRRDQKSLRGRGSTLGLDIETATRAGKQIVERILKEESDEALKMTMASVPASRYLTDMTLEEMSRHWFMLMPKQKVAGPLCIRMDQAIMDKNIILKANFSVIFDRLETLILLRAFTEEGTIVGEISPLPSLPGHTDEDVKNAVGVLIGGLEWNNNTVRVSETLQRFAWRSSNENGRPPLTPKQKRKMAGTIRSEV
Chain of Luciferin 4-monooxygenase (P08659 whole entry): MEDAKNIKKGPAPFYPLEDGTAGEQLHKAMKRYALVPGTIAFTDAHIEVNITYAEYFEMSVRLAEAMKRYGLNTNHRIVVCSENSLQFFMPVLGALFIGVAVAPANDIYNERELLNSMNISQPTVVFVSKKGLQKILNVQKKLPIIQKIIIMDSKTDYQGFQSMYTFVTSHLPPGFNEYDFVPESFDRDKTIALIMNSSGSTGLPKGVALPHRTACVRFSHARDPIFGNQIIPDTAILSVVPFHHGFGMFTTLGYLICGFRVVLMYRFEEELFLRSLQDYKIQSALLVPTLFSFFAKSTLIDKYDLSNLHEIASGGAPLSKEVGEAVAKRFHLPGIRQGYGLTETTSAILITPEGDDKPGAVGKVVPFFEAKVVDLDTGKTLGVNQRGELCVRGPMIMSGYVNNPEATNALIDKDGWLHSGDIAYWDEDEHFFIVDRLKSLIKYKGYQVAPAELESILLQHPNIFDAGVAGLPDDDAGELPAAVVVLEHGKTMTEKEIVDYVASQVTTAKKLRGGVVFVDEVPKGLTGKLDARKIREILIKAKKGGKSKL
Chain of Induced myeloid leukemia cell differentiation protein Mcl-1 (Q07820 whole entry): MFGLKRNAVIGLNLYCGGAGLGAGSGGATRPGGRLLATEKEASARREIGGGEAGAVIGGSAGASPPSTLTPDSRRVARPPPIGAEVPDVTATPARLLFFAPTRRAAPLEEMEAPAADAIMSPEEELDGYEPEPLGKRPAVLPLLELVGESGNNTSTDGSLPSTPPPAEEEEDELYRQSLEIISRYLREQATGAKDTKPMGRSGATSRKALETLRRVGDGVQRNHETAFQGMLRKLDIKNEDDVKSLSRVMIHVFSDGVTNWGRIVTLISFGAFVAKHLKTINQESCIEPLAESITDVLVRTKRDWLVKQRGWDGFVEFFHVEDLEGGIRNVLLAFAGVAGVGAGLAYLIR

Structure (SMILES): Cc1ccc(S(=O)(=O)NCC(=O)N(CC(=O)NCc2ccco2)Cc2ccc3c(c2)OCO3)cc1
- EC50 [1]: 3.4 µM (active)

Structure (SMILES): O=C1C(Cl)=C(N2CCN(C/C=C/c3ccccc3)CC2)C(=O)N1c1cccc(C(F)(F)F)c1
- IC50 [2]: > 50 µM (inconclusive)

Structure (SMILES): Cc1ccc(Cn2c(=N)c(C(=O)NCCN3CCOCC3)cc3c(=O)n4ccccc4nc32)cc1
- EC50 [3]: > 50 µM (active)

Structure (SMILES): CNC(=O)NC(=O)COC(=O)c1ccc(-n2c(C)ccc2C)cc1
- EC50 [4]: > 300 µM (not active)
- EC50 [5]: > 300 µM (not active)
- EC50 [6]: > 195 µM (not active)

Structure (SMILES): CCCCN(CC)CC/N=c1/c(N2CCN(C(=O)OCC)CC2)c(O)c1=O
- IC50 [7]: 0.433 µM (active)
- EC50 [8]: 1.68 µM (active)

Structure (SMILES): Cn1c(=O)cc(SCC(=O)N2CCN(C3CCCCC3)CC2)c2ccccc21
- EC50 [3]: > 50 µM (active)
- IC50 [9]: > 20 µM (inactive)

Structure (SMILES): Cc1c(N2C(=O)/C(=C/c3cccc4ccccc34)SC2=S)c(=O)n(-c2ccccc2)n1C
- IC50 (Nonstructural protein 1): > 100 µM (active)

Structure (SMILES): Fc1ccc(CCNCc2ccccc2Cl)cc1
- EC50 [3]: > 50 µM (active)

Structure (SMILES): COc1cc(/C=C2/C(=O)NN(c3cccc(F)c3)C2=O)ccc1OC(=O)c1ccco1
- EC50 [10]: > 112 µM (not active)
- EC50 [11]: > 112 µM (not active)
- IC50 (cells): 16.7 µM (active)

Structure (SMILES): Cc1nc2c(-c3ccc(F)cc3)c(C)nn2c(C)c1CCC(=O)N1CCC(Cc2ccccc2)CC1
- EC50 [1]: 6.64 µM (active)

Structure (SMILES): Nc1nc2ccccc2cc1-c1cccs1
- EC50 [3]: > 50 µM (active)

Structure (SMILES): CN1Cc2c(c(C#N)c(N)n(C)c2=S)CC1(C)C
- EC50 [4]: 35.4 µM (active)
- EC50 [5]: 29.1 µM (active)

Structure (SMILES): COC(=O)COc1ccc2c(-c3ccc(OC)cc3)cc(=O)oc2c1
- IC50 (cells): 1.43 µM (active)

Structure (SMILES): O=C1C(Cl)=C(N2CCN(CCO)CC2)C(=O)N1c1ccc(Cl)nc1
- IC50 [2]: > 50 µM (inconclusive)

Structure (SMILES): COc1ccc(NC(=O)C(Cc2ccccc2)n2cccc2)cc1 (stereo unspecified)
- EC50 [3]: > 50 µM (active)

Structure (SMILES): CN1CCN(/N=C/c2c3ccccc3c(Cl)c3ccccc23)CC1
- CC50 [12]: 24 µM (active)
- IC50 (Nonstructural protein 1): 24.9 µM (active)

Structure (SMILES): CCN(CC)c1ccc(C(=C2C=CC(=[N+](CC)CC)C=C2)c2ccc(S(=O)(=O)O)cc2S(=O)(=O)[O-])cc1
- IC50 (Nonstructural protein 1): 17.7 µM (active)

Structure (SMILES): Cc1cccc(N2CCN(Cc3ccc([N+](=O)[O-])o3)CC2)c1C
- EC50 [13]: 1.36 µM (active)
- EC50 [14]: > 60 µM (not active)
- IC50 (cells): 0.37 µM (active)

Structure (SMILES): COc1cccc(N2CCN(C3=C(Cl)C(=O)N(c4cccc(C)c4)C3=O)CC2)c1
- IC50 [2]: > 50 µM (inconclusive)

Structure (SMILES): Cc1ncc(N=Nc2ccccc2Cl)c(-c2ccccc2)n1
- IC50 (Nonstructural protein 1): 39.1 µM (active)

Structure (SMILES): Cc1nccn1CC(=O)N/N=C/c1ccccc1O
- IC50 (Nonstructural protein 1): 18.4 µM (active)

Structure (SMILES): CCn1c(SCCOc2ccc(Cl)cc2)nnc1-c1cccs1
- EC50 [1]: 5.63 µM (active)
- EC50 [15]: > 260 µM (inactive)

Structure (SMILES): O=C(Nc1cnc2ccccc2c1)C1COc2ccccc2O1 (stereo unspecified)
- EC50 [16]: < 0.1 µM (active)
- EC50 (H4): 37.6 µM (active)
- EC50 [1]: 2.93 µM (active)

Structure (SMILES): Cc1onc(-c2ccccc2Cl)c1C(=O)Nc1ccc(F)c(F)c1
- EC50 [10]: > 112 µM (not active)
- EC50 [11]: > 112 µM (not active)
- EC50 [1]: 5.58 µM (active)

Structure (SMILES): CCN1C(=O)/C(=C/c2c(C)nn(C)c2C)SC1=S
- EC50 [4]: 254 µM (inconclusive)
- EC50 [5]: 189 µM (inconclusive)
